Test results from article PMC3914206.

Experiments:
Format in all cases: binding
Conditions in all cases: Compound Concentration 10 µM
panel of 442 kinases [1] = target: T1, panel of 442 kinases (Homo sapiens, UniProt O95747)
T1 construct: purchased KINOMEscan
Source text: (§1) We assessed the selectivity of members of this scaffold using the KINOMEscan methodology across a near comprehensive panel of 442 kinases [[18,27]].

panel of 442 kinases [2] = target: T2, panel of 442 kinases (Homo sapiens, UniProt Q13163)
T2 construct: purchased KINOMEscan
T2 sequence (Q13163 1-448): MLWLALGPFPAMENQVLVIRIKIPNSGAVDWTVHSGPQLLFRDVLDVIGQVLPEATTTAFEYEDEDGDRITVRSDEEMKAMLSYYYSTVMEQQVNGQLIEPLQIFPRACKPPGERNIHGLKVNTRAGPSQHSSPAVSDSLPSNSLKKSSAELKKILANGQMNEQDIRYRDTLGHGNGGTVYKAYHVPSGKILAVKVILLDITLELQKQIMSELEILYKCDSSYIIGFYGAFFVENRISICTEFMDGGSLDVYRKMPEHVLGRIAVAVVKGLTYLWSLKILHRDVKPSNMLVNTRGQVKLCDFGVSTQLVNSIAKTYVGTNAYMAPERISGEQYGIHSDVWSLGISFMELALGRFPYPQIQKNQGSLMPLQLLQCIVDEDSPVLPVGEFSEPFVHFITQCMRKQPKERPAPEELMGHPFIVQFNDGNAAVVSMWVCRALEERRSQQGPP
Source text: as §1

panel of 442 kinases [3] = target: T3, panel of 442 kinases (Homo sapiens, UniProt P51955)
T3 construct: purchased KINOMEscan
T3 sequence (P51955 1-445): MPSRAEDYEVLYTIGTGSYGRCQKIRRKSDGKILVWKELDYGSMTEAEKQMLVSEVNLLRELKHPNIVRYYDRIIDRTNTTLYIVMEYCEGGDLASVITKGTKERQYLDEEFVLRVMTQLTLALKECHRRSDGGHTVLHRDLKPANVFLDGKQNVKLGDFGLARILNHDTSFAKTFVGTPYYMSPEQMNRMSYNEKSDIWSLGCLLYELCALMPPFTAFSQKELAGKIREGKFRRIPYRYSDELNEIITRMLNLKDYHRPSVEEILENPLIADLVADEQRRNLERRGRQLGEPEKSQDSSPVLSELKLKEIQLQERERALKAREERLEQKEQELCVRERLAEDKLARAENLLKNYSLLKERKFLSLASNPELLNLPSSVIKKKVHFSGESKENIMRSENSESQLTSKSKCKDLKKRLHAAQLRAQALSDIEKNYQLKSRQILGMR
Source text: as §1

T1 sequence (O95747 whole entry): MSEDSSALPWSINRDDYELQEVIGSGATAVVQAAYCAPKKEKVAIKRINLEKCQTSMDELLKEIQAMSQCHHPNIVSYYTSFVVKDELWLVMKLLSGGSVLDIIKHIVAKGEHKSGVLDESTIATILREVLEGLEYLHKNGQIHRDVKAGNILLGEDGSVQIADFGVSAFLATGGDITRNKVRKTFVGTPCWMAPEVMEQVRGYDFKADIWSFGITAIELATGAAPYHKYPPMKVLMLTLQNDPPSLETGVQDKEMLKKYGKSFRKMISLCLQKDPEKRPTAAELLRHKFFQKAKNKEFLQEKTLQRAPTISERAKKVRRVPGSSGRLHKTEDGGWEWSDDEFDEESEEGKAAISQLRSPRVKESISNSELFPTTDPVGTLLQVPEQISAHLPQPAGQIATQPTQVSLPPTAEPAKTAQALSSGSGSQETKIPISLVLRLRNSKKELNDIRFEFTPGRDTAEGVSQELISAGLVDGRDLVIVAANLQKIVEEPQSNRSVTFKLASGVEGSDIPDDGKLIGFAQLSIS

| Compound | KINOMEscan: OSR1 (panel of 442 kinases [1]) | KINOMEscan: MEK5 (panel of 442 kinases [2]) | KINOMEscan: NEK2 (panel of 442 kinases [3]) |
| --- | --- | --- | --- |
| COc1cc(C(=O)N2CCC(N3CCN(C)CC3)CC2)ccc1Nc1ncc2c(n1)N(C)c1ccccc1C(=O)N2C [15 (LRRK2-IN-1)] | 88 | 85 | 100 |
| COc1cc(C(=O)N2CCC(N3CCN(C)CC3)CC2)ccc1Nc1ncc2c(n1)N1CCc3cccc(c31)C(=O)N2C [Compound 24] | 100 | 28 | 62 |
| COc1cc(C(=O)N2CCC(N3CCN(C)CC3)CC2)ccc1Nc1ncc2c(n1)N(C1CCCC1)c1ccccc1C(=O)N2C [Compound 25, 11-cyclopentyl-2-((2-methoxy-4-(4-(4-methylpiperazin-1-yl)piperidine-1-carbonyl)phenyl)amino)-5-methyl-5H-benzo[e]pyrimido[5,4-b][1,4]diazepin-6(11H)-one] | 100 | 83 | 88 |
| CCOc1cc(C(=O)N2CCC(N3CCN(C)CC3)CC2)ccc1Nc1ncc2c(n1)N(C1CCCC1)c1ccccc1C(=O)N2C [Compound 26] | 99 | 100 | 86 |
